We go through 41 molecules from patent US7511119B2, “PRAME peptide analogues” (MannKind Corporation, priority 2005, dated 2009).

Square brackets hold non-standard residues; d marks the D form. Ends that are not written are not given here. Peptide text beside a SMILES is read from it. Phg = N[C@H](C(=O)O)c1ccccc1; Nle = CCCC[C@H](N)C(=O)O; Orn = NCCC[C@H](N)C(=O)O; Nva = CCC[C@H](N)C(=O)O

One test has as its target HLA-A*0201 (Homo sapiens, UniProt P04439, D140Y/D185E/D98H/E176V/E277Q/G131W/G231S/I119V/I121R/I166T/I218V/L300P/L318F/N151K/N90K/P208A/P217A/Q86G/Q94H/R138H/R169H/T345S). As to the kind of experiment: Peptide binding using T2 cells.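 Further: Read-out is peptide-induced stabilization of HLA-A*0201 on the cell surface, reflecting mainly Kon at limiting peptide levels and both Kon and Koff at saturating levels.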 The note with it: half maximal binding of wild-type peptide relative to analog.
The subject of test [1] is T cell lines against natural epitope SSX-241-49. Put plainly: Cross-reactivity and functional avidity: IFN-gamma production by T cell lines raised against natural SSX-2 41-49.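 Further: analogs presented ex vivo by competent APCs to T cells specific for the non-mutated epitope, scored by lowest activating concentration, peak cytokine effect and concentration at that peak.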 Type of test: cell-based, HHD transgenic mice. The following applies: T cells raised to native peptide tested on analogs; footnote * and unit not given.
The next test addresses T1, HLA-A*0201 on T2 cells (human).
T1 construct: whole, on cells; Class I MHC on the surface of T2 cells, detected with a fluorescent anti-A2 antibody; beta2-microglobulin is not mentioned for this assay; also called MHC class I (A2 allele)
Put plainly: T2 cells, wild-type/analog half-maximal binding.

The target of test [2] is T2, HLA-A*0201 class I monomer of the iTopia Epitope Discovery System.
T2 construct: also called A0201 restricted MHC Class 1 molecules; MHC monomer
As to the kind of experiment: iTopia affinity assay.

As for `CC[C@H](C)[C@H](NC(=O)[C@H](CCCCN)NC(=O)[C@H](CCC(=O)O)NC(=O)[C@H](CO)NC(=O)[C@@H](NC(=O)[C@@H](N)Cc1ccccc1)C(C)C)C(=O)N[C@@H](Cc1ccccc1)C(=O)N[C@@H](Cc1ccccc1)C(=O)N[C@H](C(=O)O)C(C)C` [SSX2 41-49 (K41F, A42V, Y48F)], the “Relative affinity (1/RA)” value at HLA-A*0201 came out at 1.7. In addition, in test [1], the “Cross-reactivity and fct avidity (native to analogs)*” value was determined as 10.
As to `CC[C@H](C)[C@H](NC(=O)[C@H](CCCCN)NC(=O)[C@H](CCC(=O)O)NC(=O)[C@H](CO)NC(=O)[C@@H](NC(=O)[C@@H](N)Cc1ccccc1)C(C)C)C(=O)N[C@@H](Cc1ccccc1)C(=O)N[C@H](C(=O)N[C@H](C(=O)O)C(C)C)c1ccccc1` [SSX2 41-49 (K41F, A42V, Y48Phg), FVSEKIF(Phg)V] (H-FVSEKIF[Phg]V-OH), the “Relative affinity (1/RA)” value at HLA-A*0201 is 2.5. For the same molecule, the “Cross-reactivity and fct avidity (native to analogs)*” value in test [1] is listed as greater than 10.
Taken in the same sequence, the figures for `CC[C@H](C)[C@H](NC(=O)[C@H](CCCCN)NC(=O)[C@H](CCC(=O)O)NC(=O)[C@H](CO)NC(=O)[C@@H](NC(=O)[C@@H](N)Cc1ccc(O)cc1)C(C)C)C(=O)N[C@@H](Cc1ccccc1)C(=O)N[C@@H](Cc1ccc(O)cc1)C(=O)N[C@H](C(=O)O)C(C)C` [SSX2 41-49 (K41Y, A42V)] were 1.0 and 0.1.
Taken in the same sequence, the figures for FISEKIFYV [SSX2 41-49 (K41F, A42I)] were 2.7 and 0.3.
Taken in the same sequence, the figures for “FVSDKIFYV [SSX2 41-49 (K41F, A42V, E44D)]” were 1.1 and greater than 10.
Consider “FVSEKIFSV [SSX2 41-49 (K41F, A42V, Y48S)]”, for which the “Relative affinity (1/RA)” value at HLA-A*0201 was 3.9. The “Cross-reactivity and fct avidity (native to analogs)*” value in test [1] is listed as greater than 10.
On to “FVSEKIFTV-OH [SSX2 41-49 (K41F, A42V, Y48T)]”, for which the “Relative affinity (1/RA)” value on HLA-A*0201 is given as 3.8. Also, in test [1], the “Cross-reactivity and fct avidity (native to analogs)*” value is given as greater than 10.
Taken in the same sequence, the figures for “FVSEKIFYM [SSX2 41-49 (K41F, A42V, V49M)]” were 0.8 and greater than 10.
Taken in the same sequence, the figures for FVSEKIFYV [SSX2 41-49 (K41F, A42V)] were 3.1 and 0.1.
Taken in the same sequence, the figures for FVSEKLFSA were 2.4 and greater than 10.
As for “FVSEKLFTV [SSX2 41-49 (K41F, A42V, I46L, Y48T)]”, at HLA-A*0201, the “Relative affinity (1/RA)” value is recorded as 2.6. Also, the “Cross-reactivity and fct avidity (native to analogs)*” value in test [1] is given as greater than 10.
Taken in the same sequence, the figures for “FVSEKLFYV [SSX2 41-49 (K41F, A42V, I46L)]” were 1.9 and 3.
Taken in the same sequence, the figures for “FVSQKIFYV [SSX2 41-49 (K41F, A42V, E44Q)]” were 0.4 and 10.
Taken in the same sequence, the figures for KASEKIFYI-OH [SSX2 41-49(V49I)] were 1.0 and 10.
For the molecule KISEKIFYV [SSX2 41-49 (A42I)], the “Relative affinity (1/RA)” value at HLA-A*0201 is recorded as 1.7. Further, the “Cross-reactivity and fct avidity (native to analogs)*” value in test [1] amounted to 3.
Taken in the same sequence, the figures for KLSEKIFYI [SSX2 41-49 (A42L, V49I)] were 2.6 and 0.03.
In the case of KMSEKIFYV [SSX2 41-49 (A42M)], on HLA-A*0201, the “Relative affinity (1/RA)” value amounted to 1.7. Moreover, in test [1], the “Cross-reactivity and fct avidity (native to analogs)*” value is reported as 0.1.
As for WLSEKIFYV-OH [SSX2 41-49 (K41W, A42L)], the “Relative affinity (1/RA)” value on HLA-A*0201 amounted to 3.3. In test [1], the “Cross-reactivity and fct avidity (native to analogs)*” value is recorded as 0.3.
Taken in the same sequence, the figures for WMSEKIFYV-OH [SSX2 41-49 (K41W, A42M)] were 2.9 and 1.
For the molecule WVSEKIFYV-OH [SSX2 41-49 (K41W, A42V)], on HLA-A*0201, the “Relative affinity (1/RA)” value is reported as 3.0. Also, the “Cross-reactivity and fct avidity (native to analogs)*” value in test [1] was 1.
Taken in the same sequence, the figures for YMSEKIFYV-OH [SSX2 41-49 (K41Y, A42M)] were 0.6 and 3.
With FVS[Nle]KIFYV (also called FVS(Nle)KIFYV) [SSX2 41-49 (K41F, A42V, E44Nle)], the “Relative affinity (1/RA)” value with HLA-A*0201 on T2 cells is 1.1 1/RA.
S[Nva]LQHLIGL [PRAME425-433 analog with Nva at P2]: in test [2], the “fold reduction of affinity (ED50) against the native peptide” value is no more than 3 fold.
FVSEK[Nva]FYV (also called FVSEK(Nva)FYV) [SSX2 41-49 (K41F, A42V, I46Nva)]: the “Relative affinity (1/RA)” value with HLA-A*0201 on T2 cells was 2.4 1/RA.
Regarding [Orn]LLQHLIGL [PRAME425-433 analog with Orn at P1], in test [2], the “fold difference of affinity (ED50) against the native peptide” value was no more than 3 fold.
In the case of FVS[Nva]KIFYV (also called FVS(Nva)KIFYV) [SSX2 41-49 (K41F, A42V, E44Nva)], in the test with HLA-A*0201 on T2 cells, the “Relative affinity (1/RA)” value is 3.9 1/RA.
The same measure, in the same setting: for FVSEKIFXV (P8 = Phe(4-F), 4-fluorophenylalanine, also called FVSEKIF(Phe-4F)V) [SSX2 41-49 (K41F, A42V, Y48(Phe-4F))] the value was 1.4 1/RA; for FVSEKIF[Phg]V (also called FVSEKIF(Phg)V) [SSX2 41-49 (K41F, A42V, Y48Phg)], 2.5 1/RA.
Turning to FVSDKIFYV [SSX2 41-49 (K41F, A42V, E44D)], in the test with HLA-A*0201 on T2 cells, the “Relative affinity (1/RA)” value was 1.1 1/RA.
Still for that read-out and setting: under FVSEKLFYV [SSX2 41-49 (K41F, A42V, I46L)] stands 1.9 1/RA; under FVSEKLFSA [SSX2 41-49 (K41F, A42V, I46L, Y48S, V49A)], 2.4 1/RA.
On the same count and under the same terms, under FVSEKIFFV [SSX2 41-49 (K41F, A42V, Y48F)] stands 1.7 1/RA; under FVSQKIFYV [SSX2 41-49 (K41F, A42V, E44Q)], 0.4 1/RA.
On to FVSEKLFTV [SSX2 41-49 (K41F, A42V, I46L, Y48T)], for which the “Relative affinity (1/RA)” value in the test with HLA-A*0201 on T2 cells was 2.6 1/RA.
Same read-out and setting: for FVSEKIFTV [SSX2 41-49 (K41F, A42V, Y48T)] the value was 3.8 1/RA; for FVSEKIFSV [SSX2 41-49 (K41F, A42V, Y48S)], 3.9 1/RA.
As to SILQHLIGL [PRAME425-433 analog with Ile at P2], in test [2], the “fold reduction of affinity (ED50) against the native peptide” value was no more than 3 fold.
For the molecule YLLQHLIGL [PRAME425-433 analog with Tyr at P1], the “fold difference of affinity (ED50) against the native peptide” value in test [2] is no more than 3 fold.
The same measure, in the same setting: for FLLQHLIGL (also called Phe P1 analog; S425F) [PRAME425-433 analog with Phe at P1] the value was no more than 3 fold; for TLLQHLIGL [PRAME425-433 analog with Thr at P1], no more than 3 fold.
As for FVSEK[Nle]FYV (also called FVSEK(Nle)FYV) [SSX2 41-49 (K41F, A42V, I46Nle)], the “Relative affinity (1/RA)” value with HLA-A*0201 on T2 cells is 1.1 1/RA.
